{
  "source": "paper PMC7995547",
  "about": "“ω‐Imidazolyl‐alkyl derivatives as new preclinical drug candidates for treating non‐alcoholic steatohepatitis” (Physiological Reports, 2021)",
  "type_in_all_cases": "in vivo, Wistar rats",
  "key": {"[1]": {"tested_on": "HFD‐induced NASH rat model (liver)", "assay": "Area of connective tissue in the liver (Mallory‐Azan staining), NASH rat model", "details": "compound overall", "description": "(§1) Studies were done using Wistar rats of female sex by the Institute of Pharmacology and Biochemistry at Minsk. The animals were 80–90 days old and weighed 180–200 g. They had free access to a liquid Lieber‐DeCarli (LDC) diet (Lieber et al., 2004) and were housed under standard conditions meaning a 12‐h light/dark cycle at 22 ± 2°C and 55 ± 5% humidity.\n(§2) Group 1 was designated as the first control group; it was fed a normal standard solid diet. Group 2, as the second control group, was fed a standard amount of fat as a part of the liquid “physiological,” non‐high fat LDC diet. All other groups received the liquid ‘disease‐causing’ LDC diet (Table 2), including a high content of unsaturated fatty acids.\n(§3) Both LDC diets were in a liquid form as produced by ssniff‐Spezialdiäten GmbH, Soest (Germany). The feed was provided over the entire experimental period of 16 weeks; however, the corresponding experimental substances were only administered in the last four weeks (Figure 3).\n(§4) The experimental substances I‐ol, I‐an, and UDCA were dissolved in a 0.8% aqueous HPMC gel to obtain the following concentrations: (1) I‐ol at 0.4, 4, and 40 mg/kg body weight (b.w.), (2) I‐an at 0.4, 4, and 40 mg/kg b.w., and (3) UDCA at 40 mg/kg b.w. The Group‐2 and −3 rats received only HPMC as placebo. Each test encompassed 6–8 rats that were put up in a separate cage. The rats were fed ad libitum, and their intake per cage was controlled daily. In order to ensure an exact daily reproducible dosage, the experimental substances or only HPMC was administered intragastrically via oral gavage. Basically, the drug therapy of a chronic disease is the more efficient the higher the adherence of the affected patients. This is generally higher with peroral administration than with any other form of application. At the end of the experiment, the animals were sacrificed under fasting conditions, by aorta dissection and exsanguination, after anesthetizing with an intraperitoneal injection of 5% pentobarbital solution.\nLiver tissue sections were subject to the Mallory‐Azan (Heidenhain Azan) staining method for visualizing the connective tissues. This method was a modification of the original Mallory staining protocol, wherein azocarmin with a mixture of aniline blue and orange G was used. In this method, the collagen tissue and basophilic granules turn blue, the muscle tissue and acidophilic granules turn orange to red, and the cell nuclei and cytoplasm turn red. Elastic fibers remain unstained; however, they might turn yellow or pink. The proportion of positively stained liver tissue to the total area of the histological slide was determined quantitatively."}, "[2]": {"tested_on": "HFD‐induced NASH rat model (liver)", "assay": "Oxidative stress (ROS status) in the liver, HFD-induced NASH rat model", "details": "liver", "description": "as §1\nThe rats were divided into 10 groups based on the diets and experimental substances administered (Figure 2).\nas §2, §3, §4\nThe formation of ROS in the rat liver was measured using NADPH‐induced chemiluminescence as described by Müller‐Peddinghaus et al. (Muller‐Peddinghaus, 1987). Luminol and lucigenin were used for detecting the superoxide radical anion (SRA) and hydrogen peroxide. Liver pieces were homogenized in 0.1 M sodium phosphate buffer, pH 7.4; the homogenates were centrifuged at 9,000 × g at 0°C; and aliquots were used for subsequent measurements. Reduced glutathione (GSH) was estimated via a modified Ellman's method (Ellman, 1959), in which 0.2 mL of the liver homogenate supernatant was added to 1.6 mL of an EDTA/sodium phosphoric acid solution and the absorbance noted at 412 nm against blank values. GSH solution produced immediately before application served as the standard. The end products of the lipid peroxidation reaction were equivalent to the thiobarbituric acid‐reacting substances (TBARS), and their concentration was measured according to the method described by Buege et al. (Buege & Aust, 1978). Enzymatic activities of microsomal glutathione reductase (GR) and cytosolic glutathione peroxidase (GPx) were measured according to the methodology of Buko et al. (Buko et al., 2002). Catalase activity was determined according to the spectroscopic methodology described by Beers et al. (Beers & Sizer, 1952) using hydrogen peroxide as the substrate."}, "[3]": {"tested_on": "HFD‐induced NASH rat model (liver and serum)", "assay": "End products of fat metabolism (liver and serum lipids), NASH rat model", "details": "UDCA 40 mg/kg b.w.", "description": "as §1, §2, §3, §4\n(§5) The activities of the liver enzymes aspartate aminotransferase (AST), alanine aminotransferase (ALT), alkaline phosphatase (AP), and γ‐glutamyl transferase (γ‐GT) as well as bilirubin and triglyceride levels in the serum were determined as described by the instructions of BIO‐LA‐tests kit (Erba Lachema, Brno, Czech Republic).\nExtraction of lipids was performed using a solvent composed of chloroform and methanol (2:1 v/v). Thin‐layer chromatography (TLC) was used to separate off neutral lipids and phospholipids. Silicagel G 60 plates (0.25 mm thick) were used. The lipids were separated by ascending chromatography in a system composed of hexane:diethylic ether:glacial acetic acid (73:25:2; v/v/v). They were visualized by iodine vapor and the spots corresponding to triglycerides and cholesterol were scraped off and eluted with methanol for spectrophotometric evaluation. Triglyceride and cholesterol levels were determined using the BIO‐LA‐test kit (Erba Lachema, Brno, Czech Republic). Phospholipid concentration was determined by measuring the levels of phosphomolybdate using an inorganic phosphate reagent containing molybdate (Findlay & Evans, 1987). VLDL level was determined by using the manganese precipitation method (Burstein & Scholnick, 1973) after partial modification (Hirano et al., 2003)."}, "[4]": {"tested_on": "HFD‐induced NASH rat model (serum)", "assay": "Liver enzyme activities and bilirubin in serum, NASH rat model", "description": "as §1, §2, §3, §4, §5"}, "[5]": {"tested_on": "HFD‐induced NASH rat model (serum)", "assay": "Adipocytokines and glucose metabolism in serum, NASH rat model", "description": "as §1, §2, §3, §4\nThe concentrations of adiponectin and TNFα were measured using ELISA kits sold by BioCat GmbH (Heidelberg, Germany), whereas the one for determining leptin level was procured from BioVendor Laboratory Medicine Inc. (Brno, Czech Republic). Insulin concentration was determined using the radioimmunoassay kit RIO‐insulin‐PG‐J125 (IBOCH, Minsk, Belarus). Serum glucose level was determined based on the “Accu‐Check Active blood glucose” monitoring method developed by Roche‐Diagnostics."}, "[6]": {"tested_on": "HFD‐induced NASH rat model (liver)", "assay": "Liver histopathology, semi‐quantitative evaluation, NASH rat model", "set-up": "key to Steatosis score / Balooning score: 0, none; 1, ≤25%; 2, 26–50%; 3, ≥51–75% of liver parenchyma", "description": "as §1, §2, §3, §4\nPieces of liver tissue measuring 1 × 2 × 0.5 mm were chosen randomly and fixed for a week in the mixture of 1% formaldehyde and 1% paraformaldehyde in Sorensen's phosphate buffer (pH 7.4) (Morphisto GmbH, Frankfurt/Main). After this the pieces were kept in 2.5% glutaraldehyde in same buffer, rinsed and then post‐fixed in 1% solution of osmium tetroxide on the Sorensen's phosphate buffer (pH 7.4). After fixation, the liver samples were dehydrated and embedded in the pre‐polymerized mixture of methyl methacrylate and butyl methacrylate (1:4, v/v) containing 2,4‐dichlorbenzoyl peroxide as a catalyst.\n[…] A semi‐quantitative evaluation of the sections was performed according to the procedure described by Koppe et al. (Koppe et al., 2004)."}, "[7]": {"details": "average over doses (I‐ol, I‐an), UDCA 40 mg/kg b.w."}, "[8]": {"details": "average over doses (I‐ol, I‐an)"}, "[9]": {"details": "serum, average over doses (I‐ol, I‐an), UDCA 40 mg/kg b.w."}, "[10]": {"details": "serum, number: highest concentration (40 mg/kg b.w.), words: compound overall"}, "[11]": {"details": "40.0 mg/kg b.w. + HFD, H.E.‐stained liver slices"}},
  "data": [
    {"smiles": "C[C@H](CCC(=O)O)[C@H]1CC[C@H]2[C@@H]3[C@@H](O)C[C@@H]4C[C@H](O)CC[C@]4(C)[C@H]3CC[C@]12C", "note": "[UDCA, ursodeoxycholic acid, reference compound]", "values": [
      {"measurement": "Effect on area of connective tissue in the liver (in words)", "setting": "[1]", "value": "no therapeutic effect"},
      {"measurement": "Increase in GR activity compared to disease group", "setting": "[2]; I‐ol, I‐an groups overall, UDCA 40 mg/kg b.w.", "value": 24, "unit": "%"},
      {"measurement": "Decrease in SRA level compared to disease group", "setting": "[2]; average over 0.4, 4, 40 mg/kg b.w. (I‐ol, I‐an), UDCA 40 mg/kg b.w., oral gavage daily, last 4 of 16 weeks HFD", "value": 30, "unit": "%"},
      {"measurement": "Decrease in TBARS level compared to disease group", "setting": "[2]; [7]", "value": 27, "unit": "%"},
      {"measurement": "Reduction of the effect of HFD on the SRA level", "setting": "[2]; [7]", "value": 84, "unit": "%"},
      {"measurement": "Reduction of the effect of HFD on the TBARS level", "setting": "[2]; [7]", "value": 63, "unit": "%"},
      {"measurement": "Effect on GSH level (in words)", "setting": "[2]; compound overall", "value": "overall ineffective"},
      {"measurement": "Decrease in hydrogen peroxide level compared to disease group", "setting": "[2]; highest concentration (40 mg/kg b.w.)", "value": "no significant effect"},
      {"measurement": "Effect of HFD nullified, GR activity increased by (on an average)", "setting": "[2]; relative to the effect of HFD", "value": 99, "unit": "%"},
      {"measurement": "Decrease in liver triglyceride levels compared to disease group", "setting": "[3]; [8]", "value": 17, "unit": "%"},
      {"measurement": "Reduction of the effect of HFD on liver triglyceride levels", "setting": "[3]; [8]", "value": 39, "unit": "%"},
      {"measurement": "Decrease in liver phospholipid levels compared to disease group", "setting": "[3]; average over doses", "value": "no therapeutic effect"},
      {"measurement": "Decrease in serum LDL cholesterol", "setting": "[3]; average over doses", "value": "non‐significant trend toward lowering the serum LDL level"},
      {"measurement": "Decrease in serum triglyceride levels compared to disease group", "setting": "[3]; average over doses", "value": "no therapeutic effect"},
      {"measurement": "Decrease in serum bilirubin level compared to disease group", "setting": "[4]; average over doses, UDCA 40 mg/kg b.w.", "value": "no therapeutic effect"},
      {"measurement": "Decrease in γ‐GT enzymatic activity compared to disease group", "setting": "[4]; [9]", "value": 30, "unit": "%"},
      {"measurement": "Reduction of the effect of HFD on γ‐GT activity", "setting": "[4]; [9]", "value": 73, "unit": "%"},
      {"measurement": "Decrease in ALT enzymatic activity compared to disease group", "setting": "[4]; serum, highest concentrations (40 mg/kg b.w.)", "value": 15, "unit": "%"},
      {"measurement": "Reduction of the effect of HFD on ALT activity", "setting": "[4]; serum, highest concentrations (40 mg/kg b.w.), b87: dose not stated", "value": 50, "unit": "%"},
      {"measurement": "Decrease in AP enzymatic activity compared to disease group", "setting": "[4]; [10]", "value": "no therapeutic effect"},
      {"measurement": "Decrease in AST enzymatic activity compared to disease group", "setting": "[4]; [10]", "value": "no therapeutic effect"},
      {"measurement": "Decrease in serum glucose level", "setting": "[5]; 40 mg/kg b.w.", "value": 26, "unit": "%"},
      {"measurement": "Reversal of the effect of HFD on serum glucose level", "setting": "[5]; 40 mg/kg b.w.", "value": 100, "unit": "%"},
      {"measurement": "Reduction of the effect of HFD on serum TNF‐α level", "setting": "[5]; average over doses (I‐ol), UDCA 40 mg/kg b.w.", "value": 75, "unit": "%"},
      {"measurement": "Decrease in serum TNF‐α level compared to disease group", "setting": "[5]; [7]", "value": 56, "unit": "%"},
      {"measurement": "Decrease in serum leptin compared to disease group", "setting": "[5]; [7]", "value": 21, "unit": "%"},
      {"measurement": "Increase in serum adiponectin compared to disease group", "setting": "[5]; [7]", "value": 42, "unit": "%"},
      {"measurement": "Reduction of the effect of HFD on serum adiponectin", "setting": "[5]; average over doses (I‐ol, I‐an), UDCA 40 mg/kg b.w. (elevated the concentration by)", "value": 52, "unit": "%"},
      {"measurement": "Reduction of the effect of HFD on serum leptin", "setting": "[5]; average over doses (I‐ol, I‐an), UDCA 40 mg/kg b.w. (reduced leptin concentration)", "value": 72, "unit": "%"},
      {"measurement": "Balooning score", "setting": "[6]; [11]", "value": 0},
      {"measurement": "Inflammation score", "setting": "[6]; [11]", "value": "1 (1, <5 signs of inflammation)"},
      {"measurement": "Steatosis score", "setting": "[6]; [11]", "value": "0–1"},
      {"measurement": "Effect on liver histology (in words)", "setting": "[6]; animals with NASH (HFD)", "value": "improved liver histology"}
    ]}
  ]
}
